Results reported in patent US4230719A, “Novel 2-[4-(3-methyl-2-thienyl)phenyl]propionic acid and pharmaceutically acceptable salt thereof and method for treating symptoms of inflammation and pain” (Toyama Chemical Co., Ltd., priority 1977, dated 1980).
Where two headings read alike, the source gives them in different places.

How the values were obtained:
[1] = system: Carrageenin-induced edema; experiment: Carrageenin-induced edema; assay type: in vivo, rat (Donryu strain, male); details: Rattus norvegicus, po, read-out: Inhibitory percent of swelling; for inhibition in vivo at 15 mg/kg: 15 mg/kg p.o.
Protocol: (iii) Carrageenin-induced edema
Each of the 6 Donryu strain male rats per group (each weighing about 140 g), which had been fasted overnight, was orally loaded with 4 ml of water and, after 30 minutes, the test compound was orally administered thereto. Thirty minutes thereafter, a 1%(Wt/V) solution of carrageenin in physiological saline was subcutaneously injected into the subplantar region of the left hind paw. At a time interval of one hour, starting from the end of the first hour till the end of the fifth hour after injection of carrageenin, the paw volume was measured by means of a manometer and pressure transducer. By comparison with the percent increase in swelling of the control group of rats to which a 0.5%(V/V) solution of Tween 80 had been administered, the mean inhibitory percent in 5 hours of swelling was calculated by the following equation: [formula]

[2] = system: phenylbenzoquinone writhing; experiment: Analgesic activity, phenylbenzoquinone method in mouse; assay type: in vivo, mouse (ddY strain, male); details: for Frequency of writhing, mean ± S.E.: during 10 minutes
Protocol: (i) Phenylbenzoquinone method in mouse
The test compound was orally administered to each ddY strain male mouse (weighing 22±2 g; 8 mice per group). […] The frequency of writhing during 10 minutes from 5-minutes after the injection of phenylbenzoquinone was measured and compared with that of a control group to which a 0.5% Tween 80 solution was administered. The percent inhibition was calculated by the following equation: [formula]

[3] = system: Vascular permeability; experiment: Vascular permeability in mice (Whittle's method); assay type: in vivo, mouse (ddY strain, male); details: for ED30: Mus musculus, po; for Inhibition: dye leakage
Protocol: (i) Vascular permeability in mice (Whittle's method)
The test compound was orally administered to each ddY strain male mouse (weighing each about 20 g). After 20 minutes, 0.1 ml/10 g of a 4%(Wt/V) solution of Pontamine Sky Blue in physiological saline was intravenously injected and 10 minutes thereafter 0.1 ml/10 g of a 0.7%(V/V) solution of acetic acid in physiological saline was injected intraperitoneally. After 30 minutes, the mice were killed by suffocation with chloroform. After immediate laparotomy, the dye leaked into the peritoneal cavity was washed out with distilled water. The washings were made up with water to 30 ml and the absorbance at 620 mμ was measured. The amount of leaked dye per 20 g of mouse weight was compared.

[4] = system: Vascular permeability; experiment: Vascular permeability in rat (Whittle's method); assay type: in vivo, rat (Wistar strain, male); details: for ED30: Rattus norvegicus, po
Protocol: (ii) Vascular permeability in rat (Whittle's method)
The test compound was orally administered to each Wistar strain male rat (weighing about 150 g) which had been fasted overnight. After 55 minutes, 0.5 ml of a 0.5% Evans Blue solution was intravenously injected. Five minutes thereafter, 0.2 ml/100 g of a 3%(V/V) acetic acid solution was intraperitoneally injected. After 60 minutes from the injection of the acetic acid solution, the rats were killed by suffocation with chloroform. After immediate laparotomy, the dye leaked into the peritoneal cavity was washed out with physiological saline. The washings were made up with the saline to 30 ml and the absorbance at 640 mμ was measured to examine the effect of the test compounds by comparing the amounts of leaked dye per rat with one another.

[5] = system: Adjuvant arthritis; experiment: Adjuvant arthritis; assay type: in vivo, rat (Sprague-Dawley strain, male); details: 1 mg/kg p.o./day, mean during one week
Protocol: A suspension containing 6 mg/ml of killed and dried Mycobacterium butyricum in liquid paraffin was subcutaneously injected into the subplantar region of the left hind paw of Sprague-Dawley strain male rats (weighing 180 to 200 g) in a proportion of 0.1 ml/rat. After 14 days, the rats having inflammatory paws of similar volumes were selected and the test compound was orally administered to the rats repeatedly at the rate shown in Table 4 during one week and the mean inhibitory percent of swelling during one week was determined.

[6] = system: pain threshold (brewer's yeast, hind paw); experiment: Analgesic activity, Randall-Selitto method in rat; assay type: in vivo, rat (Wistar strain, male); details: for Inhibition: 100% = pain threshold raised by 150 g; for ED50: Rattus norvegicus, po
Protocol: (ii) Randall-Selitto method in rat
After one hour, the test compound was orally administered. One hour thereafter, the pain threshold value was measured four times at a time interval of one hour. The mean value of four values obtained was taken as the pain threshold value of each group of rats. The activity of the drug was assumed to be 100% when the pain threshold value was raised by 150 g.

[7] = system: fever (Mycobacterium butyricum); experiment: Antipyretic action; assay type: in vivo, rat (Wistar strain, female); details: for ED1.0: Rattus norvegicus, po
Protocol: A suspension (0.6 mg/0.1 ml) of killed and dried Mycobacterium butyricum in liquid paraffin was subcutaneously injected in an amount of 0.1 ml into the subplantar region of the hind paw of each Wistar strain female rat weighing about 180 g. After 14 hours, the fevered rats were divided into groups, and each test compound was orally administered to each group to examine the antipyretic effect.

[8] = system: threshold value of pain due to pressure stimuli (tail); details: for Analgesic effect: 100% = threshold raised by 160 g; for ED50: Mus musculus, po
[9] = system: Phenol Red (PSP) excretion; experiment: Uricosuric action (a), inhibition of Phenol Red (PSP) excretion; assay type: in vivo, rabbit (male); details: dose not stated
Protocol: (a) The action was examined by the method of B. B. Brodie et al. who reported that the inhibitory action on Phenol Red (PSP) excretion correlates with the uricosuric action [Proc. Soc. Exp. Biol. Med., 86, 884 (1954)]. To a male rabbit weighing 2 to 3 kg was intraperitoneally administered the test compound. After 30 minutes, 75 mg/kg of a Phenol Red suspension was injected into the pinna vein of the rabbit and 30 minutes thereafter a blood sample was drawn from the pinna vein. The blood sample was centrifuged and the serum was diluted with physiological saline. The diluted serum was treated with 0.1 N NaOH to develop the color. The concentration of Phenol Red in the serum was determined from the absorbance at 560 mμ.

[10] = in vivo; details: rat, po
[11] = Mus musculus, po, 10 min, writhing, 40 mg/kg p.o.
[12] = Mus musculus, po, 10 min, read-out: Inhibition

Row | Compound | inhibition in vivo at 5 mg/kg ([1]; 5 mg/kg p.o., mean in 5 hours) [%] | inhibition in vivo at 15 mg/kg ([1]; mean in 5 hours) [%] | Frequency of writhing, mean ± S.E. ([2]; 20 mg/kg p.o.) | Frequency of writhing, mean ± S.E. ([2]; 40 mg/kg p.o.) | inhibition in vivo at 40 mg/kg [2, 11] [%] | ED50 ([2]; po, mouse, read-out: ED50) [mg/kg] | Dye leakage (P.S.B.) mean ± S.E. ([3]; 10 mg/kg p.o.) [μg/20g] | Dye leakage (P.S.B.) mean ± S.E. ([3]; 20 mg/kg p.o.) [μg/20g] | ED30 [3] [mg/kg] | Inhibition ([3]; 5 mg/kg p.o.) [%] | Inhibition ([3]; 20 mg/kg p.o.) [%] | Inhibition ([4]; 1 mg/kg p.o.) [%] | Inhibition ([4]; 5 mg/kg p.o.) [%] | ED30 [4] [mg/kg] | inhibition in vivo at 1 mg/kg ([1]; 5 h) [%] | inhibition in vivo at 5 mg/kg ([1]; 5 h) [%] | Frequency of writhing, mean ± S.E. ([2]; 5 mg/kg p.o.) | Frequency of writhing, mean ± S.E. ([2]; 10 mg/kg p.o.) | Analgesic effect ([8]; 20 mg/kg p.o.) [%] | ED50 [8] [mg/kg] | also measured
1 | CC(C(=O)O)c1ccc(-c2ccc(Cl)s2)cc1 (stereo not shown) [Compound C8] | 17 | 41.9 | 17.5 ± 4.2 | 6.3 ± 0.6 | 73.3 | 27 | – | – | – | – | – | – | – | – | – | – | – | – | – | – | inhibition in vivo at 20 mg/kg ([2]; Mus musculus, po, 10 min, writhing, 20 mg/kg p.o., read-out: Inhibition): 25.8%
2 | O=C(O)Cc1ccc(-c2cccs2)cc1 [Compound C9] | 15.1 | 24.1 | – | 13.9 ± 1.6 | 41.1 | > 40 | – | – | – | – | – | – | – | – | – | – | – | – | – | – | –
3 | O=C(O)Cc1ccccc1Nc1c(Cl)cccc1Cl [Diclofenac sodium] | – | – | 10.9 ± 1.7 | – | – | – | 227.0 ± 14.4 | 205.3 ± 10.1 | 14 | 5.4 | 36.0 | 5.4 | 30.2 | 4.8 | 6.4 | 39.8 | 21.4 ± 3.0 | 16.2 ± 3.1 | 71 | 9.5 | Inhibitory percent of swelling [5]: 10.9%; ED50 ([2]; Mus musculus, po): 17.7 mg/kg; inhibition in vivo at 5 mg/kg [2, 12]: 9.3%; inhibition in vivo at 20 mg/kg [2, 12]: 53.8%; Inhibition ([6]; 1 mg/kg p.o.): 22.7%; Inhibition ([6]; 5 mg/kg p.o.): 49.7%; Inhibition ([6]; 25 mg/kg p.o.): 74.9%; ED50 [6]: 5.3 mg/kg; Mean decrease in temp. ([7]; 0.2 mg/kg p.o.): 0.88 °C; Mean decrease in temp. ([7]; 1 mg/kg p.o.): 1.63 °C; Mean decrease in temp. ([7]; 5 mg/kg p.o.): 1.57 °C; ED1.0 [7]: 0.25 mg/kg; Analgesic effect ([8]; 5 mg/kg p.o.): 31%
4 | CC(C)Cc1ccc(C(C)C(=O)O)cc1 (stereo not shown) [Ibuprofen] | – | – | – | – | – | – | – | – | – | – | – | – | – | – | – | – | – | – | 36 | 44.5 | Analgesic effect ([8]; 80 mg/kg p.o.): 60%
5 | COc1ccc2c(c1)c(CC(=O)O)c(C)n2C(=O)c1ccc(Cl)cc1 [Indomethacin] | – | – | 5.4 ± 2.1 | – | – | – | 204.5 ± 17.6 | 176.4 ± 17.0 | 6.8 | 25.0 | 45.0 | 32.5 | 47.7 | 1 | 6.4 | 46.2 | 13.8 ± 2.9 | 9.1 ± 3.1 | 80 | 6 | Dye leakage (P.S.B.) mean ± S.E. ([3]; 5 mg/kg p.o.): 240.5 ± 25.9 μg/20g; Inhibition ([3]; 10 mg/kg p.o.): 36.3%; Inhibition ([4]; 0.5 mg/kg p.o.): 20.7%; ED50 ([2]; Mus musculus, po): 7 mg/kg; inhibition in vivo at 5 mg/kg [2, 12]: 41.5%; inhibition in vivo at 10 mg/kg [2, 12]: 61.4%; inhibition in vivo at 20 mg/kg [2, 12]: 77.1%; Inhibition ([6]; 1 mg/kg p.o.): 27.4%; Inhibition ([6]; 5 mg/kg p.o.): 41.6%; Inhibition ([6]; 25 mg/kg p.o.): 75.6%; ED50 [6]: 6.3 mg/kg; Uricosuric action (in words) [9]: very weak; Mean decrease in temp. ([7]; 0.2 mg/kg p.o.): 0.25 °C; Mean decrease in temp. ([7]; 1 mg/kg p.o.): 0.87 °C; Mean decrease in temp. ([7]; 5 mg/kg p.o.): 1.35 °C; ED1.0 [7]: 1.06 mg/kg; LD50 [10]: 16.2 mg/kg; Analgesic effect ([8]; 5 mg/kg p.o.): 44%
6 | CC(C(=O)O)c1cccc(C(=O)c2ccccc2)c1 (stereo not shown) [Ketoprofen] | – | – | – | – | – | – | – | – | – | – | – | – | – | – | – | – | – | – | – | 19.5 | Analgesic effect ([8]; 10 mg/kg p.o.): 40%; Analgesic effect ([8]; 40 mg/kg p.o.): 61%
